Measured values as given in PubChem BioAssay (NCI).
Where “and” joins values, the source holds several entries; their conditions need not be identical. Identical values can stand only once.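 How tested: cells in 96-well plates exposed to compound for 48 hours at five concentrations. Here, GI50 denotes the concentration required for 50% inhibition of growth. TGI marks complete inhibition of growth.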

What was measured:
Experiment in all cases: NCI tumour cell line growth inhibition, 48 h
[1] = system: U251 CNS
[2] = system: RPMI-8226 leukemia
[3] = system: NCI-H226 lung
[4] = system: M14 melanoma
[5] = system: SK-OV-3 ovarian
[6] = system: SK-MEL-28 melanoma
[7] = system: SNB-75 CNS
[8] = system: OVCAR-5 ovarian
[9] = system: HOP-92 NSCLC
[10] = system: MDA-MB-435

SMILES | TGI [1] | TGI [2] | TGI [3] | TGI [4] | TGI [5] | TGI [6] | TGI [7] | TGI [8] | TGI [9] | TGI [10] | GI50 [1] | GI50 [2] | GI50 [3] | GI50 [4] | GI50 [5] | GI50 [6] | GI50 [7] | GI50 [8] | GI50 [9] | GI50 [10]
Cn1c2ccccc2c(=O)c2c(O)cc3c(c21)CC(C1(C)CO1)O3 (stereo unspecified) | 11.7 µM | 22.6 µM | 32 µM | 2.93 µM | 24.1 µM | 7.59 µM | 24 µM | 23.4 µM | 30.8 µM | 3.07 µM | – | – | – | – | – | – | – | – | – | –
Cc1cc2nc3ccc(=[N+](C)C)cc-3sc2cc1N | 2.55 µM and 18.9 µM and 2.11 µM | – | 9.05 µM and 30.9 µM and 7.69 µM | 1.38 µM and 9.09 µM and 2.28 µM | 8.08 µM and 34.8 µM and 10.9 µM | 4.65 µM and 27 µM and 3.56 µM | 4.03 µM and 24.5 µM and 3.37 µM | 3.95 µM and 22.5 µM and 3.42 µM | 10.1 µM and 38.3 µM and 11.1 µM | 0.46 µM and 2.18 µM and 0.665 µM | 0.357 µM and 0.381 µM | 0.218 µM and 0.0867 µM | 2.11 µM and 1.82 µM | 0.368 µM and 0.703 µM | 1.98 µM and 3.01 µM | 1.64 µM and 1.65 µM | 1.43 µM and 1.34 µM | 1.37 µM and 0.833 µM | 1.44 µM and 1.76 µM | 0.209 µM and 0.256 µM
C=C1COC(O)(C2OCOC(C3CC(=O)NC(=O)C3)C2O)C1C (stereo unspecified) | 0.0376 µM and 0.0739 µM | 0.0063 µM and 0.0127 µM and 0.0451 µM | 0.019 µM and 0.0216 µM | 0.017 µM and 0.0232 µM | 0.052 µM | 0.0377 µM | 0.0336 µM and 0.0195 µM | 0.0499 µM and 0.0546 µM | 0.0354 µM and 0.045 µM | 0.037 µM | 0.00275 µM | 0.00236 µM | 0.00356 µM | 0.00323 µM | 0.00429 µM | 0.00222 µM | 0.00332 µM | 0.00331 µM and 0.017 µM | 0.00585 µM and 0.0117 µM | 0.00481 µM
CN(C)CCC=C1c2ccccc2C(C)(C)c2ccccc21 | 26.1 µM | 5.93 µM | – | 9.78 µM | 28.8 µM | 4.31 µM | 17.6 µM | 31.4 µM | 14.7 µM | 19.5 µM | 12.2 µM | 2 µM | – | 2.94 µM | 15.5 µM | 2.05 µM | 2.86 µM | 15.9 µM | 1.88 µM | 4.56 µM
CCCCCc1cc[n+](CC(=O)c2ccc([N+](=O)[O-])cc2)cc1 | 28.2 µM | 17 µM | 24.4 µM | 22.7 µM | 46.3 µM | > 100 µM | 26.6 µM | 97.9 µM | 9.84 µM | 14.6 µM | 4.44 µM | 3.18 µM | 6.73 µM | 7.03 µM | 13.1 µM | 28.9 µM | 10.9 µM | 22 µM | 2.2 µM | 3.7 µM
CC(=O)c1ccc(Nc2nc(Nc3ccc(F)cc3)nc(Nc3ccc(F)cc3)n2)cc1 | 30.1 µM | > 100 µM | > 100 µM | > 100 µM | 83.6 µM | 45 µM | 29.5 µM | > 100 µM | 31.5 µM | > 100 µM | 11.7 µM | 94.9 µM | 20.7 µM | 6.52 µM | 10.5 µM | 11 µM | 5.62 µM | 35.1 µM | 5.64 µM | 3.24 µM
CN1CC[C@]2(c3cccc(O)c3)CC(=O)/C(=C/c3ccccc3)[C@H]1C2 | 9.92 µM | > 22 µM | 28.6 µM | 9.46 µM | 8.73 µM | 12.8 µM | 14.4 µM | 16.1 µM | 7.92 µM | 8.96 µM | – | 2.1 µM | 9.03 µM | – | 2.81 µM | – | 3.89 µM | 4.34 µM | – | 2.08 µM
CCCCCCCCCCCCCCCC(=O)N[C@H](/C=C/[C@H](O)CCCCCCCCCCCCC)CO | > 100 µM | > 100 µM | > 100 µM | > 100 µM | > 100 µM | > 100 µM | > 100 µM | > 100 µM | > 100 µM | > 100 µM | > 100 µM | 0.884 µM | > 100 µM | > 100 µM | > 100 µM | > 100 µM | > 100 µM | > 100 µM | > 100 µM | > 100 µM
O=C1C(=O)c2ccccc2C(O)=C1CCCc1ccc(C2CCCC2)cc1 | 33.6 µM | 6.94 µM | 20.5 µM | 23.7 µM | 56.9 µM | 40.1 µM | 38.7 µM | 23.6 µM | – | 38.8 µM | 5.3 µM | 2.66 µM | 3.77 µM | 8.86 µM | 12.5 µM | 7.69 µM | 6.55 µM | 11 µM | – | 5.1 µM
CSc1ccc2c(c1)N(CCC1CCCCN1C)c1ccccc1S2 (stereo unspecified) | 19.2 µM and 12.2 µM | 27.1 µM and 6.05 µM | 28.5 µM and 30.3 µM | 4.89 µM and 3.76 µM | 27.5 µM and 29 µM | 14.3 µM and 3.63 µM | 22.1 µM and 12.3 µM | 22 µM and 13.2 µM | 8.51 µM | 13.6 µM and 11.1 µM | 5.92 µM and 3.53 µM | 8.8 µM and 2.23 µM | 11.2 µM and 11.4 µM | 2.17 µM and 1.85 µM | 13 µM and 13.8 µM | 4.08 µM and 1.86 µM | 5.64 µM and 3.49 µM | 10.1 µM and 3.83 µM | 2.11 µM | 3.48 µM and 3.1 µM
CCOc1ccc2c(C)cc(=O)oc2c1 | > 100 µM | > 100 µM | > 100 µM | > 100 µM | – | > 100 µM | > 100 µM | > 100 µM | > 100 µM | > 100 µM | – | – | – | – | – | – | – | – | – | –
Nc1ccccc1NC(=O)c1ccc(CN2CCC/C(=C\c3ccccn3)C2=O)cc1 | > 100 µM | 5.66 µM | 9.59 µM | > 100 µM | > 100 µM | – | 6.05 µM | – | 2.98 µM | 1.77 µM | 1.83 µM | 0.686 µM | 2.62 µM | 1.05 µM | 1.93 µM | – | 1.06 µM | – | 0.143 µM | 0.357 µM
CC(C)=CCC1=C(OCC(=O)O)C(=O)c2ccccc2C1=O | > 100 µM | > 100 µM | 90.1 µM | > 100 µM | > 100 µM | > 100 µM | 64.7 µM | – | > 100 µM | 29 µM | – | – | – | – | – | – | – | – | – | –
NCCCn1c2c(c3ccc([N+](=O)[O-])cc3c1=O)C(=O)c1cc(-c3ccccc3)ccc1-2 | 0.313 µM | 1.45 µM | – | 2.37 µM | – | 3.13 µM | 1.87 µM | 2.95 µM | 3.15 µM | 3.11 µM | 0.172 µM | 0.348 µM | – | 1.12 µM | – | 1.51 µM | 0.579 µM | 1.48 µM | 1.36 µM | 1.65 µM
